Source: US9637451B2, “Indole compound” (ASTELLAS PHARMA INC., priority 2014, dated 2017)
pEC50: −log10 of the molar value.

Experiments:
human MT1 receptor = molecular target: T1, human MT1 receptor (Homo sapiens, UniProt P48039); assay: Activation of human MT1 receptor in receptor-expressing cells, intracellular Ca2+ by FLIPR; type: cell-based; conditions: for pEC50: HEK293EBNA1 cells stably expressing human MT1 and Gq/i chimeric G protein, Ca2+ FLIPR; for Emax: maximum reaction by ramelteon taken as 100%
T1 construct: expressed in transfected cells

human MT2 receptor = molecular target: T2, human MT2 receptor (Homo sapiens, UniProt P49286); assay: Activation of human MT2 receptor in receptor-expressing cells, intracellular Ca2+ by FLIPR; type: cell-based; conditions: for pEC50: HEK293 cells stably expressing human MT2 and Gq/i chimeric G protein, Ca2+ FLIPR; for Emax: maximum reaction by ramelteon taken as 100%
T2 construct: expressed in transfected cells
T2 sequence (P49286 1-362): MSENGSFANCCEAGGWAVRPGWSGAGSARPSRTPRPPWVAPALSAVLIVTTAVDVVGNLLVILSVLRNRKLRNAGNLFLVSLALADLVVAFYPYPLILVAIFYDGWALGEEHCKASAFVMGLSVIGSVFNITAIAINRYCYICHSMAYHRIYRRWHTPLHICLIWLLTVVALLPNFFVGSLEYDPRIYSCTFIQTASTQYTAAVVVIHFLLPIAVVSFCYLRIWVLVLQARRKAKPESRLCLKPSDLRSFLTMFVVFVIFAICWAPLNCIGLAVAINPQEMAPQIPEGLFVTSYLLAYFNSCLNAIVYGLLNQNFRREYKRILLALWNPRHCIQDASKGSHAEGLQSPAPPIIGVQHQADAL

T1 sequence (P48039 whole entry): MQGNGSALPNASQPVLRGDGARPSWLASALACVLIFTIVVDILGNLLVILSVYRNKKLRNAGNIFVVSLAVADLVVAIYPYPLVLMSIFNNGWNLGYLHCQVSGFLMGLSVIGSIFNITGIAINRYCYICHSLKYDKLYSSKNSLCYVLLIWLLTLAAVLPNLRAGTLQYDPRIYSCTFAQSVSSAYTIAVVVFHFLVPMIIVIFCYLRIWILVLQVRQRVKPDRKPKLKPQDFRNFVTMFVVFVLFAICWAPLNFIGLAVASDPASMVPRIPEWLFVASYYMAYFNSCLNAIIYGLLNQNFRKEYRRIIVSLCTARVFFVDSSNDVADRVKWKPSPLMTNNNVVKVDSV

SMILES | pEC50 (human MT1 receptor) | Emax (human MT1 receptor) [%] | pEC50 (human MT2 receptor) | Emax (human MT2 receptor) [%]
CC(=O)NCCc1c[nH]c2ccc(OCCOc3ccn(C)n3)cc12 [Example 2, N-[2-(5-{2-[(1-methyl-1H-pyrazol-3-yl)oxy]ethoxy}-1H-indol-3-yl)ethyl]acetamide] | 8.15 | 125 | 7.77 | 125
CC(=O)NCCc1c[nH]c2ccc(OCCOc3cnccn3)cc12 [Example 3, N-(2-{5-[2-(pyrazin-2-yloxy)ethoxy]-1H-indol-3-yl}ethyl)acetamide] | 8.00 | 94 | 7.29 | 127
CCOC(=O)NCCOc1ccc2[nH]c(C)c(CCNC(C)=O)c2c1 [Example 12] | 8.11 | 96 | 7.74 | 93
COc1ccc(OCCOc2cc3c(CCNC(C)=O)c(C)[nH]c3cc2F)cn1 [Example 16] | 8.00 | 100 | 7.00 | 82
COC(=O)NCCOc1ccc2[nH]c(C)c(CCNC(C)=O)c2c1 [Example 17] | 8.23 | 84 | 7.48 | 91
COC(=O)NCCOc1cc2c(CCNC(C)=O)c(C)[nH]c2cc1F [Example 19] | 8.24 | 94 | 7.77 | 91
CC(=O)NCCc1c[nH]c2ccc(OCCc3csc(C)n3)cc12 [Example 20] | 8.39 | 115 | 8.11 | 119
CNC(=O)NCCc1c[nH]c2ccc(OCCc3nc(C)sc3C)cc12 [Example 21] | 8.15 | 103 | 7.36 | 59
CC(=O)NCCc1c(C)[nH]c2cc(F)c(OCCn3ccc(C)n3)cc12 [Example 22] | 8.14 | 105 | 8.06 | 95
CC(=O)NCCc1c[nH]c2cc(F)c(OCCn3cc(Cl)cn3)cc12 [Example 24] | 7.89 | 99 | 7.74 | 71
CC(=O)NCCc1c[nH]c2cc(F)c(OCCc3csc(C)n3)cc12 [Example 25] | 8.82 | 105 | 8.54 | 96
CNC(=O)NCCc1c[nH]c2cc(F)c(OCCc3csc(C)n3)cc12 [Example 26] | 8.06 | 97 | 8.01 | 106
CCc1ccn(CCOc2cc3c(CCNC(C)=O)c[nH]c3cc2F)n1 [Example 27] | 8.06 | 83 | 8.00 | 82
COc1ccc(OCCOc2cc3c(CCNC(C)=O)c[nH]c3cc2F)cn1 [Example 28] | 8.17 | 119 | 7.46 | 62
CC(=O)NCCc1c(C)[nH]c2ccc(OCCn3ccc(C)n3)cc12 [Example 29] | 8.00 | 100 | 7.62 | 112
CNC(=O)NCCc1c(C)[nH]c2ccc(OCCn3ccc(C)n3)cc12 [Example 30] | 8.32 | 106 | 7.82 | 110
COc1ncc(OCCOc2ccc3[nH]cc(CCNC(C)=O)c3c2)cc1F [Example 32] | 8.47 | 96 | 7.30 | 66
COc1ncc(OCCOc2cc3c(CCNC(C)=O)c[nH]c3cc2F)cc1F [Example 33] | 8.37 | 103 | 7.22 | 53
CC(=O)NCC(C)c1c[nH]c2ccc(OCCOc3ccn(C)n3)cc12 (centres unmarked) [Example 34] | 8.37 | 93 | 8.00 | 125

SMILES | pEC50 (human MT1 receptor) | Emax (human MT1 receptor) [%] | pEC50 (human MT2 receptor) | Emax (human MT2 receptor) [%]
CC(=O)NCC(C)(C)c1c[nH]c2cc(F)c(OCCOc3ccn(C)n3)cc12 [Example 35] | 8.43 | 94 | 8.08 | 114
CC(=O)NCC(C)(C)c1c[nH]c2cc(F)c(OCCn3ccc(C)n3)cc12 [Example 36] | 8.22 | 101 | 7.82 | 96
CC(=O)NC[C@H](C)c1c[nH]c2cc(F)c(OCCn3ccc(C)n3)cc12 [Example 39] | 8.14 | 104 | 7.29 | 49
COc1ccc(OCCOc2cc3c([C@@H](C)CNC(C)=O)c[nH]c3cc2F)cn1 [Example 40] | 8.20 | 81 | 6.80 | 42
CCCC(=O)NCCc1c[nH]c2ccc(OCCOc3ccn(C)n3)cc12 [Example 41] | 7.96 | 75 | 7.59 | 93
Cn1ccc(OCCOc2ccc3[nH]cc(CCNC(=O)C(F)F)c3c2)n1 [Example 42] | 8.10 | 97 | 7.92 | 103
CCC(=O)NCCc1c[nH]c2cc(F)c(OCCOc3ccn(C)n3)cc12 [Example 43] | 8.28 | 110 | 8.15 | 104
Cn1ccc(OCCOc2cc3c(CCNC(=O)C(F)F)c[nH]c3cc2F)n1 [Example 44] | 8.48 | 103 | 8.35 | 102
CCC(=O)NCCc1c(C)[nH]c2cc(F)c(OCCOc3ccn(C)n3)cc12 [Example 45] | 8.64 | 99 | 7.85 | 127
CCC(=O)NCCc1c[nH]c2cc(F)c(OCCOc3ccc(OC)nc3)cc12 [Example 46] | 8.47 | 78 | 8.20 | 76
CNC(=O)NCCc1c(C)[nH]c2cc(F)c(OCCOc3ccn(C)n3)cc12 [Example 47] | 8.01 | 124 | 7.39 | 145
CNC(=O)NCCc1c(C)[nH]c2ccc(OCCOc3cnc(OC)c(F)c3)cc12 [Example 48] | 8.08 | 92 | 7.25 | 106
CC(=O)NCCc1c[nH]c2ccc(OCCOc3cncc(Br)c3)cc12 [Example 49] | 8.25 | 102 | 7.96 | 119
CNC(=O)NCCc1c[nH]c2ccc(OCCOc3cncc(Br)c3)cc12 [Example 50] | 8.07 | 89 | 8.19 | 111
CC(=O)NCCc1c[nH]c2ccc(OCCOc3ccnc(Cl)c3)cc12 [Example 51] | 8.28 | 95 | 8.33 | 108
CNC(=O)NCCc1c[nH]c2ccc(OCCOc3ccnc(Cl)c3)cc12 [Example 52] | 8.00 | 92 | 8.25 | 117
CNC(=O)NCCc1c[nH]c2ccc(OCCOc3cccc(OC)n3)cc12 [Example 53] | 9.00 | 112 | 8.32 | 99
COc1cccc(OCCOc2ccc3[nH]cc(CCNC(C)=O)c3c2)n1 [Example 54] | 9.11 | 111 | 8.59 | 109
CC(=O)NCCc1c[nH]c2ccc(OCCOc3cncc(Cl)c3)cc12 [Example 55] | 8.10 | 109 | 8.04 | 133
